Measured values reported in patent US20150126597A1, “GENISTEIN CANCER TREATMENT REGIMEN MAXIMIZING CANCER RADIATION THERAPY BENEFITS” (Humanetics Corporation, priority 2013, published 2015).

Tests used:
[1] = tested on: uterus, GI tract, esophagus, skin, tumor, lungs; test: Example 1: post mortem tissue weights and histopathology (safety); type: in vivo, mouse; settings: Example 1, 10 weeks dosing 5 d/wk
Experimental: At the time of euthanasia organs were harvested and wet tissue weights were measured. In addition to the tissues the weight of the remaining tumor was determined so that the tumor weight can be correlated with the calculated tumor volumes.
The various tissues were fixed in formalin, then processed and embedded in paraffin. Hematoxylin and eosin (H&E) staining was done on 5 micron sections from each of the tissues.
Following euthanasia organ weights were collected for the lungs, uterus, and GI tract. In addition, the tumor was resected and weighed. […]
The examined tissues included the lungs, GI tract (esophagus), uterus, tumor, and the skin near the A549 tumor xenograft. […] All tissues were analyzed microscopically following H&E staining. For these analyses 5 tumors, 5 lung samples, and 5 skin samples were analyzed from each experimental group. In addition, three uterus samples and three esophagus samples from each experimental group were analyzed. All tissue samples were prepared, sectioned, and stained with H&E. Tissues were analyzed for gross morphology and H&E sections were evaluated for inflammatory cells, capillary distension, and congestion. A veterinary pathologist scored the severity and distribution of anomalies observed. […]

[2] = Genistein provided as a nano suspension in accordance with US 2012/0164190 and 2012/0121654; cited from earlier work
[3] = cited from earlier work

Q: Which Uterus wet weight [1] does the source give for `O=c1c(-c2ccc(O)cc2)coc2cc(O)cc(O)c12` [Genistein, 5,7-dihydroxy-3-(4-hydroxyphenyl)-chromen-4-one] here?
A: did not dramatically affect the wet uterine weights

Q: What about the Oral bioavailability [2] of the same molecule?
A: significantly improved oral bioavailability

Q: And the Solubility in water [3]?
A: virtually insoluble in water
